ChEMBL document CHEMBL1140273, “Carbonic anhydrase inhibitors: novel sulfonamides incorporating 1,3,5-triazine moieties as inhibitors of the cytosolic and tumour-associated carbonic anhydrase isozymes I, II and IX” (Bioorg Med Chem Lett, 2005)

target: Carbonic anhydrase 9 (Homo sapiens, UniProt Q16790)

Compound | Ki
NS(=O)(=O)c1ccc(CCNc2nc(Cl)nc(NCC(=O)O)n2)cc1 | 1 nM
CC(C)Nc1nc(NCc2ccc(S(N)(=O)=O)cc2)nc(NC(C)C)n1 | 16 nM
CCN(CC)c1nc(NCc2ccc(S(N)(=O)=O)cc2)nc(N(CC)CC)n1 | 7.5 nM
CCCNc1nc(NCCC)nc(Nc2ccc(S(N)(=O)=O)cc2)n1 | 56 nM
NS(=O)(=O)c1ccc(Nc2nc(Oc3ccccc3)nc(Oc3ccccc3)n2)cc1 | 254 nM
